# Where “and” joins values, the source holds several entries; their conditions need not be identical. Equal entries are not always repeated. Where two headings read alike, the source gives them in different places.
# Assays:
# WM-115 cells [1] = test: MTT cytotoxicity assay, WM-115; assay type: cell-based, human; conditions: Homo sapiens, WM-115, 48 h, MTT, 46 h + 2 h incubation
# Experimental: (§1) The first stage of the study used the MTT viability test to determine the cytotoxicity of ten compounds, i.e., 3-arylidenechromanone, 3-arylideneflavanone, spirochromanone and spiro- flavanone analogues, against four human cancer cell lines: HL-60, NALM-6, WM-115 and COLO-205.
# (§2) Cytotoxicity was tested against human skin melanoma cells (WM-115, ECACC, Salisbury, UK), two human leukemia cell lines, viz. promyelocytic leukemia (HL-60) and lymphoblastic leukemia (NALM-6), and human colon adenocarcinoma cells (COLO-205). The cell lines COLO-205, WM-115 and HL-60 used in this work came from the ATCC American Type Culture Collection (Manassas, VA, USA), whereas the NALM-6 cell line was purchased from the German Collection of Microorganisms and Cell Cultures (Braunschweig, Germany). The leukaemia cells and colon adenocarcinoma were cultured in RPMI 1640 medium (Invitrogen, Grand Island, NY, USA) supplemented with 10% fetal bovine serum (FBS; Invitrogen) and gentamicin (25 µg/mL; KRKA, Novo Mesto, Slovenia). For melanoma WM-115 cells, Dulbecco’s minimal essential medium (DMEM; Invitrogen) was used. All cell lines were cultured at 37 °C in a humidified atmosphere of 5% CO2 in air.
# (§3) For all experiments, the studied compounds were dissolved in DMSO (Sigma-Aldrich) and were further diluted in culture medium to obtain <0.1% DMSO concentration. In each experiment, controls with and without 0.1% DMSO were performed. The cytotoxicity of all compounds and of the reference compounds 4-chromanone and 3-benzylideneflavanone was determined by the MTT assay, i.e., 3-(4,5-dimethylthiazol-2-yl)-2,5-diphenyltetrazolium bromide (Sigma, St. Louis, MO, USA), which measures cellular dehydrogenase activity. Exponentially growing cells were seeded a day before the experiment onto a 96-well microplates (Nunc, Roskilde, Denmark) at a density up to 6–8 × 10^3 cells/well (depending on the cell line). Subsequently, various concentrations of the studied compounds freshly prepared in DMSO and diluted with complete culture medium were added. All compounds were tested for their cytotoxicity at a final concentration of 10^−7–10^−3 M. After 46 h of incubation with the studied compounds, the cells were treated with the MTT reagent and incubation was continued for another two hours. MTT – formazan crystals were dissolved in 20% sodium dodecyl sulphate (SDS, Sigma-Aldrich) and 50% DMF (Sigma-Aldrich) at pH 4.7; following this, absorbance was read at 570 nm on a multifunctional Victor ELISA-plate reader (Perkin Elmer, Turku, Finland). The IC50 values, i.e., the concentration of the test compound required to reduce the cell survival fraction to 50% of controls, were calculated from concentration-response curves and used as a measure of the sensitivity of the cells to a given treatment. As a control, cultured cells were grown in the absence of drugs. The data points represent the means of at least five to ten repeats ± standard deviation (S.D.).
# COLO-205 cells = test: MTT cytotoxicity assay, COLO-205; assay type: cell-based, human; conditions: Homo sapiens, COLO 205, 48 h, 46 h + 2 h incubation
# Experimental: as §1, §2, §3
# HL-60 cells [2] = test: MTT cytotoxicity assay, HL-60; assay type: cell-based, human; conditions: for IC50: Homo sapiens, HL-60, 48 h, MTT, 46 h + 2 h incubation
# Experimental: as §1, §2, §3
# NALM-6 cells [3] = test: MTT cytotoxicity assay, NALM-6; assay type: cell-based, human; conditions: Homo sapiens, NALM-6, 48 h, MTT, 46 h + 2 h incubation
# Experimental: as §1, §2, §3
# [4] = test system: red blood cells (RBC membrane integrity); test: Red blood cell lysis assay; assay type: cell-based; conditions: 2% RBC suspension, 37 °C, 1 h
# Source text: (§4) All synthesized compounds with potential biological activity have to be tested for blood compatibility since xenobiotics will react with blood cells upon administration. In this case, biocompatibility refers to the quantification of cellular and plasma components of the blood. The measurement of the integrity of RBC membrane is considered a simple and reliable method for estimating hemocompatibility.
# (§5) The studies on biological material were approved by the Bioethics Committee of the Medical University of Lodz, Poland (RNN/109/16/KE). The blood samples were obtained from healthy donors at the Blood Donation Centre in Lodz. The procedure for plasma preparation for erythrotoxicity studies was described previously. The influence of synthesized compounds as well as two reference compounds flavanone and chromanone on RBC membrane integrity was performed by lysis assay which was conducted according to our previous protocol. Briefly, 2% RBC suspension in 0.9% NaCl was incubated at 37 °C for one hour with the tested compounds at various concentrations corresponding to their activity towards cancer cell lines or 0.9% NaCl (control). The samples were centrifuged at 3000 rpm for 10 min and the absorbance of the supernatant was measured at 550 nm. The results are presented as percentage of haemolysis where a sample containing 10 μL of 2.0% v/v Triton X-100 was regarded as a positive control contributing to 100% of haemolysis. A sample containing saline solution represented spontaneous haemolysis of RBCs (control). The studies were performed on four biological samples obtained from different blood donors (n = 4). The results are presented as mean ± standard deviation (SD). The coefficient of variability for the method was counted: W = 9.51%, n = 5.
# [5] = Red blood cell lysis assay; assay type: cell-based; conditions: human, 2% red blood cell suspension, 2% RBC suspension, 37 °C, Triton X-100 = 100%, read-out: percentage of hemolysis
# Source text: as §4, §5
# erythrocytes = test: Red blood cell morphology (phase-contrast microscopy); assay type: cell-based; conditions: 2% erythrocyte suspension, 37 °C, 1 h, phase contrast 400×
# Experimental: Studies on erythrocyte morphology complement the erythrotoxicity studies because they provide information on potential immediate interactions of the tested compounds with the erythrocyte lipid bilayer, and the possibility of creating pathological forms of erythrocytes, which are not able to carry oxygen. The effects of the synthesized compounds, and the two reference compounds chromanone and flavanone, on the morphology of erythrocytes is shown in Figure 6. Briefly, 2% RBC suspension was incubated with 0.9% NaCl (control samples) or tested compounds at various concentrations corresponding to their activity towards cancer cell lines.
# A 2% erythrocyte suspension was incubated at 37 °C for one hour with various concentrations of synthesized compounds. The morphology of the RBCs was examined by means of a phase contrast Opta-Tech inverted microscope, at 400× magnification, equipped with software (OptaView 7) for image analysis.
# [6] = Lipophilicity (logP) by RP-TLC; conditions: RP-18 F254S TLC plates
# Source text: Lipophilicity is one of the most important physicochemical properties in pharmaceutical research. It can be considered a key determinant of the pharmacokinetic properties of a drug. It is commonly measured by the partition coefficient between water and n-octanol, being expressed as logP [14]. […] Knowledge of the partition coefficient is valuable: it is frequently used in structure–activity relationship (SAR) and quantitative structure–activity relationship (QSAR) studies. The experimental lipophilicity of the synthesized compounds, viz. benzylideneflavanones, benzylidenechromanones and spiropyrazolines, was determined using RP-TLC. […] It is important to examine the relationship between structure of the compound and its lipophilicity and cytotoxicity.
# The RP-TLC experiments were performed on TLC plates (5 × 10 cm) RP-18 F254S (Merck, Darmstadt, Germany). The synthesized compounds were dissolved in N,N-dimethylformamide DMF (2 mg/mL). […] A DMF-water solvent system was used as mobile phase. […] All experiments were performed at room temperature. The logP parameter was calculated using the equation from the calibration curve.
# NALM-6 cells [7] = test system: NALM-6 cells; parameters: method as in PMID 30513785; conditions: MTT; cited from earlier work
# WM-115 cells [8] = test system: WM-115 cells; parameters: method as in PMID 30513785; conditions: MTT; cited from earlier work
# HL-60 cells [9] = test: Cell cycle analysis by flow cytometry (propidium iodide); assay type: cell-based, human; conditions: for cell cycle, G1, mean / cell cycle, G2/M, mean / cell cycle, S, mean: mean of n=2; for cell cycle distribution, G1 / cell cycle distribution, G2 / cell cycle distribution, G2/M: HL-60, 20 h, mean ± SD, n = 2
# Experimental: The next stage examined the effects of the selected compounds on cell cycle progression in HL-60 leukemia cells. […] One million HL-60 (subline CCL 240; cell type: promyeloblast) cells in 3 mL of RPMI 1640 supplemented with 20% FBS were seeded on 6-well plate. […] Fixed cells were stored in −20 °C for 2–3 days. Before analysis, cells were centrifuged (10 min, 1500 rpm, 4 °C) and washed twice with cold PBS. After the second wash, the cells were suspended in 1mL of PBS containing 100 μg of RNase A and incubated in 37 °C for 10 min. Next, 5 μL of solution of propidium iodide (1 mg/mL) was added to each sample and incubated in dark for 30 min at RT. Stained cells were analyzed by flow cytometry (FACS Calibur, BD Biosciences, San Jose, CA, USA). Data from 10,000 gated cells were collected using CellQuestPro software (Ver 6.0, Becton Dickinson) and cell cycle analysis was performed with ModFit LT software (Ver 3.2, Verity Software House, Topsham, ME, USA).
# HL-60 cells [10] = test system: HL-60 cells; parameters: method as in PMID 30513785; conditions: MTT; cited from earlier work
# [11] = Figure S3, HL-60, 0.5 × IC50 (µM: quercetin 29, 1 1.5, 7 18, 10 4.7, 11 4.5, 12 6)
# [12] = Figure S3, HL-60, 0.5 × IC50, each of two repetitions
# [13] = Figure S3, HL-60, 1 × IC50 (µM: quercetin 58, 1 3, 7 35, 10 9.4, 11 9, 12 12)
# [14] = Figure S3, HL-60, 1 × IC50, each of two repetitions
# [15] = 0.5 × IC50 (µM: quercetin 29, 2 1.5, 7 18, 12 6, 11 4.5, 10 4.7)
# [16] = 1 × IC50 (µM: quercetin 58, 2 3, 7 35, 12 12, 11 9, 10 9.4)
structure (smiles),measurement,setting,value
"COc1ccc(/C=C2\COc3ccccc3C2=O)cc1 [Compound 3, (E)-3-(4-methoxybenzylidene)chroman-4-one]",IC50,WM-115 cells [1],23.5 ± 1.71 µM
same,IC50,COLO-205 cells,193 ± 2.9 µM
same,IC50,HL-60 cells [2],45.4 ± 4.77 µM
same,IC50,NALM-6 cells [3],30.1 ± 3.15 µM
same,effect on RBC hemolysis / erythrocyte membrane integrity (in words),[4],significant disintegration of the erythrocyte membrane at concentrations above 25 µM
same,hemolysis at 1 h,[5],≤ 5%
same,erythrocyte morphology (in words),erythrocytes,echinocytes accounted for the major part of erythrocytes
same,chromatographic logP,[6],4.08
"COc1ccc(C2CN=NC23COc2ccccc2C3=O)cc1 (stereo not shown) [Compound 4, 4′-[(4-methoxy)phenyl]-4′,5′-dihydro-4H-spiro[chroman-3,3′-pirazol]-4-one]",IC50,WM-115 cells [1],75.3 ± 4.89 µM
same,IC50,COLO-205 cells,26.5 ± 1.8 µM
same,melting point,,109 to 111.3 °C
same,IC50,HL-60 cells [2],74 ± 1.85 µM
same,IC50,NALM-6 cells [3],72.6 ± 4.56 µM
same,effect on RBC hemolysis / erythrocyte membrane integrity (in words),[4],significant disintegration of the erythrocyte membrane at concentrations above 25 µM
same,hemolysis at 1 h,[5],≤ 5%
same,erythrocyte morphology (in words),erythrocytes,echinocytes accounted for the major part of erythrocytes
same,chromatographic logP,[6],4.68
"O=C1c2ccccc2OC(c2ccccc2)C12N=NCC2c1ccccc1 (stereo not shown) [Compound 6, 2′-phenylchromanone-3′-spiro-3,4-phenyl-1-pyrazoline]",IC50,WM-115 cells [1],57.4 ± 5.8 µM
same,IC50,COLO-205 cells,53.6 ± 1.6 µM
same,melting point,,126.5 to 127 °C
same,fold lower cytotoxicity against HL-60 than compound 2,"HL-60 cells [2]; HL-60, compared with compound 2",more than 330 fold
same,IC50,HL-60 cells [2],> 1000 µM
same,IC50,NALM-6 cells [3],44.4 ± 6.3 µM
same,erythrocyte morphology (in words),erythrocytes,echinocytes accounted for the major part of erythrocytes
same,chromatographic logP,[6],5.88
"O=C1c2ccccc2OCC12N=NCC2c1ccccc1 (stereo not shown) [Compound 8, 4′-phenyl-4′,5′-dihydro-4H-spiro[chromano-3,3′-pirazol]-4-one]",IC50,WM-115 cells [1],415 ± 75.4 µM
same,IC50,COLO-205 cells,> 1000 µM
same,melting point,,141 to 142 °C
same,IC50,HL-60 cells [2],474 ± 29 µM
same,IC50,NALM-6 cells [3],282 ± 49.4 µM
same,effect on RBC hemolysis / erythrocyte membrane integrity (in words),[4],significantly greater disintegration of RBC membrane was reported at concentrations of 250 µM and 500 µM
same,chromatographic logP,[6],2.35
"CCN(CC)c1ccc(C=C2C(=O)c3ccccc3OC2c2ccccc2)cc1 (stereo not shown) [Compound 11, (E)-3-(4-N,N-diethylaminobenzylidene)-2-phenylchroman-4-one]",IC50,NALM-6 cells [7],9.08 ± 0.3 µM
same,IC50,WM-115 cells [8],6.45 ± 0.69 µM
same,"cell cycle, G1, mean",HL-60 cells [9]; [11],"5,95%"
same,"cell cycle, G2/M, mean",HL-60 cells [9]; [11],"59,23%"
same,"cell cycle, S, mean",HL-60 cells [9]; [11],"34,83%"
same,"cell cycle, G1, single repetitions",HL-60 cells [9]; [12],"3,45% and 8,45%"
same,"cell cycle, G2/M, single repetitions",HL-60 cells [9]; [12],"64,13% and 54,32%"
same,"cell cycle, S, single repetitions",HL-60 cells [9]; [12],"27,42% and 42,23%"
same,"cell cycle, G1, mean","HL-60 cells [9]; Figure S3, HL-60, 1 × IC50 (µM in parenthesis: quercetin 58, 1 3, 7 35, 10 9.4, 11 9, 12 12)","3,17%"
same,"cell cycle, G2/M, mean",HL-60 cells [9]; [13],"67,76%"
same,"cell cycle, S, mean",HL-60 cells [9]; [13],"29,08%"
same,"cell cycle, G1, single repetitions",HL-60 cells [9]; [14],"5,16% and 1,17%"
same,"cell cycle, G2/M, single repetitions",HL-60 cells [9]; [14],"67,98% and 67,53%"
same,"cell cycle, S, single repetitions",HL-60 cells [9]; [14],"26,86% and 31,30%"
same,"cell cycle distribution, G1",HL-60 cells [9]; [15],3.2 ± 2.8%
same,"cell cycle distribution, G2",HL-60 cells [9]; [15],29.1 ± 3.1%
same,"cell cycle distribution, G2/M",HL-60 cells [9]; [15],67.8 ± 0.3%
same,"cell cycle distribution, G1",HL-60 cells [9]; [16],6 ± 3.5%
same,"cell cycle distribution, G2",HL-60 cells [9]; [16],34.8 ± 10.5%
same,"cell cycle distribution, G2/M",HL-60 cells [9]; [16],59.2 ± 6.9%
same,cells arrested in G2/M phase,"HL-60 cells [9]; HL-60, concentrations of IC50 and 0.5 × IC50",50–60%
same,IC50,HL-60 cells [10],8.36 ± 0.63 µM
same,chromatographic logP,[6],5.69
